Patent US20250042886A1, “BIS(HETERO)ARYL THIOETHER OXADIAZINES AS FUNGICIDAL COMPOUNDS” (Bayer Aktiengesellschaft, priority 2021, published 2025)

Key:
[1] = tested on: Colletotrichum lindemuthianum; assay: Colletotrichum lindemuthianum in vitro cell test; type: cell-based; conditions: 144 h, liquid culture, 6 days incubation, read-out: efficacy (inhibition of fungal growth); for inhibition at 20 ppm: 20 ppm of active ingredient; for inhibition at 50 µM: 50 μMol/l of active ingredient
Procedure, shortened: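 C. lindemuthianum spores in liquid glucose–peptone–yeast extract medium were exposed to compounds dissolved in DMSO. After 6 days, mycelial growth was measured by absorbance, and inhibition was calculated against compound-free control wells.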

[2] = Measurement of Log P values by HPLC on reversed phase columns (EEC directive 79/831 Annex V.A8); type: physicochemical; conditions: Table 1, compounds of formula (I); method [a]: LC-UV, acidic range, 0.1% formic acid in water and acetonitrile
[3] = tested on: Colletotrichum lindemuthianum; assay: In vivo preventive test on Colletotrichum lindemuthianum (leaf spot on bean); conditions: 168 h, 500 ppm of active ingredient, sprayed on young bean plants 24 h before inoculation, evaluated 7 days after inoculation, read-out: efficacy
Method: B-4. […] The active ingredients were made soluble and homogenized in a mixture of Dimethyl sulfoxide/Acetone//Tween® 80 and then diluted in water to the desired concentration. The young plants of bean were treated by spraying the active ingredient prepared as described above. Control plants were treated only with an aqueous solution of Acetone/Dimethyl sulfoxide/Tween® 80. After 24 hours, the plants were contaminated by spraying the leaves with an aqueous suspension of Colletotrichum lindemuthianum spores.

[4] = tested on: Pyrenophora teres; assay: Pyrenophora teres in vitro cell test; type: cell-based; conditions: 144 h, 50 μMol/l of active ingredient, liquid culture, 6 days incubation, read-out: efficacy (inhibition of fungal growth)
Procedure, shortened: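 Compounds in DMSO were added to P. teres spore suspensions in glucose/peptone/yeast-extract liquid medium, testing inhibition of spore germination and mycelium growth. After 6 days, mycelium growth was read by absorbance. Inhibition was calculated relative to fungicide-free control wells.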

[5] = tested on: Fusarium culmorum; assay: Fusarium culmorum in vitro cell test; type: cell-based; conditions: 120 h, 50 μMol/l of active ingredient, liquid culture, 5 days incubation, read-out: efficacy (inhibition of fungal growth)
Procedure, shortened: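 Spores in liquid mineral-salts/saccharose medium exposed to compounds (DMSO ≤1% final) for 5 days. Mycelium growth measured spectrometrically, with inhibition derived from absorbance relative to fungicide-free control wells.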

[6] = tested on: Botrytis cinerea; assay: Botrytis cinerea in vitro cell test; type: cell-based; conditions: 144 h, 50 μMol/l of active ingredient, liquid culture, 6 days incubation, read-out: efficacy (inhibition of fungal growth)
Procedure, shortened: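 Compounds from DMSO stocks added at a range of concentrations to a defined mineral-salt/sucrose liquid medium inoculated with B. cinerea spores. After 6 days' incubation, mycelium growth was read by absorbance; inhibition of germination and growth was calculated against fungicide-free control wells.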

[7] = tested on: Pyricularia oryzae; assay: microbe, parasite or virus in culture; type: cell-based; conditions: 120 h, read-out: efficacy (inhibition of fungal growth), 50 μMol/l of active ingredient, liquid culture, 5 days incubation
[8] = tested on: Alternaria alternata; assay: Alternaria alternata in vitro cell test; type: cell-based; conditions: 120 h, 50 μMol/l of active ingredient, liquid culture, 5 days incubation, read-out: efficacy (inhibition of fungal growth)
Method: B-5. Alternaria alternata In Vitro Cell Test • Solvent: DMSO • Culture medium: 14.6 g anhydrous D-glucose (VWR), 7.1 g Mycological Peptone (Oxoid), 1.4 g granulated Yeast Extract (Merck), QSP 1 liter • Inoculum: spores suspension Fungicides were solubilized in DMSO and the solution used to prepare the required range of concentrations. […] A spore suspension of A. alternata was prepared and diluted to the desired spore density. Fungicides were evaluated for their ability to inhibit spore germination and mycelium growth in liquid culture assay. The compounds were added in the desired concentration to the culture medium with spores. After 5 days incubation, fungi-toxicity of compounds was determined by spectrometric measurement of mycelium growth. Inhibition of fungal growth was determined by comparing the absorbance values in wells containing the fungicides with the absorbance in control wells without fungicides.

[9] = tested on: Botrytis cinerea; assay: In vivo preventive test on Botrytis cinerea (grey mould); conditions: 500 ppm of active ingredient, sprayed on young gherkin or cabbage plants 24 h before inoculation, evaluated 4 to 5 days after inoculation, read-out: efficacy
Procedure, shortened: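 Compounds in DMSO/acetone/Tween 80 were diluted in water and sprayed onto young gherkin or cabbage plants; controls got solvent only. After 24 h, leaves were sprayed with an aqueous Botrytis cinerea spore suspension.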

[10] = tested on: Alternaria brassicae; assay: In vivo preventive test on Alternaria brassicae (leaf spot on radish or cabbage); conditions: 500 ppm of active ingredient, sprayed on young radish or cabbage plants 24 h before inoculation, evaluated 3 to 4 days after inoculation, read-out: efficacy
Method: B-1. […] The active ingredients were made soluble and homogenized in a mixture of Dimethyl sulfoxide/Acetone//Tween® 80 and then diluted in water to the desired concentration. The young plants of radish or cabbage were treated by spraying the active ingredient prepared as described above. Control plants were treated only with an aqueous solution of Acetone/Dimethyl sulfoxide/Tween® 80. After 24 hours, the plants were contaminated by spraying the leaves with an aqueous suspension of Alternaria brassicae spores.

Row | SMILES | inhibition at 20 ppm [1] | chromatographic logP [2] | pest or weed control at 500 ppm [3] | inhibition at 50 µM [1] | inhibition at 50 µM [4] | inhibition at 50 µM [5] | inhibition at 50 µM [6] | inhibition at 50 µM [7] | inhibition at 50 µM [8] | pest or weed control at 500 ppm [9] | pest or weed control at 500 ppm [10]
1 | Cc1ccc(C[C@H]2CON=C(c3nc(C)ncc3Sc3cccc(OC(F)(F)F)c3)N2)c(C)c1 (racemic) [Compound I-026] | 70 to 79% | 5.39 | 80 to 89% |  |  |  |  |  |  |  | 
2 | Cc1ccc([C@H]2CON=C(c3c(Sc4cccc(F)c4)nnc4ccccc34)N2)s1 (racemic) [Compound I-042] |  | 3.27 | 70 to 79% | 90 to 100% | 90 to 100% | 90 to 100% | 90 to 100% | 90 to 100% | 90 to 100% | 90 to 100% | 90 to 100%
3 | Cc1ccc([C@H]2CON=C(c3c(Sc4ccccc4C)nnc4ccccc34)N2)s1 (racemic) [Compound I-110] |  | 3.45 | 70 to 79% |  |  |  | 90 to 100% |  |  | 90 to 100% | 90 to 100%
4 | Cc1ccc(C[C@@H]2CON=C(c3cc(Cl)nnc3Sc3ccc(C(F)(F)F)cc3)N2)c(C)c1 (racemic) [Compound I-027] |  | 5.31 | 90 to 100% |  |  |  |  |  |  |  | 90 to 100%
5 | Cc1cc([C@H]2CON=C(c3c(Sc4ccccc4)nnc(C)c3C)N2)c(C)s1 (racemic) [Compound I-069] |  | 3.03 | 70 to 79% | 90 to 100% |  | 90 to 100% | 90 to 100% | 80 to 89% | 80 to 89% | 90 to 100% | 80 to 89%
6 | Cc1ccc([C@H]2CON=C(c3c(Sc4ccccc4)nnc4ccccc34)N2)s1 (racemic) [Compound I-097] |  | 3.14 |  | 90 to 100% | 90 to 100% | 80 to 89% | 90 to 100% | 80 to 89% | 80 to 89% | 90 to 100% | 80 to 89%
7 | COc1cccc(Sc2nnc3ccccc3c2C2=NOC[C@H](c3ccc(C)s3)N2)c1 (racemic) [Compound I-090] |  | 3.21 | 80 to 89% | 90 to 100% | 80 to 89% | 90 to 100% | 90 to 100% |  |  | 90 to 100% | 
8 | Cc1cccc(Sc2nnc(C)c(C)c2C2=NOCC(c3ccc(C)s3)N2)c1 (racemic) [Compound I-095, (5RS)-3-[5,6-dimethyl-3-(m-tolylsulfanyl)pyridazin-4-yl]-5-(5-methyl-2-thienyl)-5,6-dihydro-4H-1,2,4-oxadiazine] |  | 2.99 | 70 to 79% | 90 to 100% |  | 70 to 79% | 90 to 100% | 70 to 79% |  | 90 to 100% | 90 to 100%
9 | Cc1ccc(C[C@H]2CON=C(c3nc(C)ncc3Sc3cccc(OC(F)(F)F)c3)N2)c(Cl)c1 (racemic) [Compound I-021] | 70 to 79% | 5.46 | 70 to 79% |  |  |  |  |  |  |  | 
10 | Cc1cc([C@H]2CON=C(c3c(Sc4cccc(F)c4)nnc(C)c3C)N2)c(C)s1 (racemic) [Compound I-050] |  | 3.16 |  | 90 to 100% | 90 to 100% | 90 to 100% | 90 to 100% | 90 to 100% | 90 to 100% | 90 to 100% | 90 to 100%
11 | Cc1ccc([C@@H]2CON=C(c3c(Sc4cccc(C(F)(F)F)c4)nnc(C)c3C)N2)s1 (racemic) [Compound I-044] |  | 3.36 | 90 to 100% | 90 to 100% | 90 to 100% |  | 90 to 100% | 80 to 89% | 70 to 79% | 90 to 100% | 
12 | Cc1cccc(Sc2nnc3ccccc3c2C2=NOC[C@H](c3ccc(C)s3)N2)n1 (racemic) [Compound I-066] |  | 2.69 | 70 to 79% | 90 to 100% |  | 70 to 79% | 90 to 100% | 70 to 79% |  | 90 to 100% | 80 to 89%
13 | Cc1cc([C@H]2CON=C(c3c(Sc4ccc(F)c(F)c4)nnc(C)c3C)N2)c(C)s1 (racemic) [Compound I-091] |  | 3.33 |  | 90 to 100% | 90 to 100% | 90 to 100% | 90 to 100% | 80 to 89% | 80 to 89% | 90 to 100% | 80 to 89%
14 | Cc1ccc([C@H]2CON=C(c3c(Sc4ccccc4Cl)nnc4ccccc34)N2)s1 (racemic) [Compound I-067] |  | 3.4 |  | 80 to 89% | 90 to 100% |  | 90 to 100% | 70 to 79% | 90 to 100% | 90 to 100% | 90 to 100%
15 | COc1cccc(Sc2nnc(C)c(C)c2C2=NOC[C@@H](c3cc(C)sc3C)N2)c1 (racemic) [Compound I-079] |  | 3.11 | 80 to 89% | 90 to 100% | 80 to 89% | 90 to 100% | 90 to 100% | 70 to 79% | 70 to 79% | 90 to 100% | 
16 | FC(F)(F)c1ccc(Sc2nnc(Cl)cc2C2=NOC[C@@H](Cc3ccc(Cl)cc3Cl)N2)cc1 (racemic) [Compound I-003] |  | 4.93 | 70 to 79% |  |  |  |  |  |  | 90 to 100% | 
